Data reported in PMC9686928, “10-mer and 9-mer WALK Peptides with Both Antibacterial and Anti-Inflammatory Activities” (Antibiotics, 2022).
Where no end group is shown, it is not given here.

Experiments:
[1] = system: Bacillus subtilis ATCC 6633; assay: microbe, parasite or virus in culture; format: cell-based; conditions: Gram-positive; broth microdilution, Luria-Bertani broth, 1–64 μg/mL two-fold serial dilutions; lowest concentration that completely inhibited growth; triplicate
Procedure: (§1) The antimicrobial activity of each peptide was assessed against four strains, including two Gram-positive (Bacillus subtilis ATCC 6633 and Staphylococcus aureus ATCC 6538p) and two Gram-negative bacteria (Escherichia coli ATCC 25922 and Shigella dysentariae ATCC 9752) cultured in Luria-Bertani broth media. Antibacterial susceptibility was determined as the MIC value, which was measured using the standard broth microdilution method as described previously. […] Two conventional antibiotics, ampicillin and kanamycin, were used as controls to confirm antibiotic susceptibility. The tests were performed in triplicate, and the MIC values that were reproduced twice or thrice in the three independent measurements were employed to calculate the GM value.

[2] = system: Escherichia coli ATCC 25922; assay: microbe, parasite or virus in culture; format: cell-based; conditions: Gram-negative; broth microdilution, Luria-Bertani broth, 1–64 μg/mL two-fold serial dilutions; triplicate
Procedure: as §1

[3] = system: Shigella dysentariae ATCC 9752; assay: microbe, parasite or virus in culture; format: cell-based; conditions: Gram-negative; broth microdilution, Luria-Bertani broth, 1–64 μg/mL two-fold serial dilutions; triplicate
Procedure: as §1

[4] = system: Staphylococcus aureus ATCC 6538p; assay: microbe, parasite or virus in culture; format: cell-based; conditions: Gram-positive; broth microdilution, Luria-Bertani broth, 1–64 μg/mL two-fold serial dilutions; triplicate
Procedure: as §1

[5] = system: two Gram-positive and two Gram-negative bacterial strains; assay: Antimicrobial assay, MICs over the four strains (geometric mean); format: cell-based, B. subtilis, S. aureus, E. coli, S. dysentariae; conditions: for GM, geometric mean of MICs: geometric mean of the MICs against the four strains
Procedure: as §1

[6] = system: LPS-stimulated J774A.1 cells; assay: Nitric oxide (NO) production, Griess reaction assay; format: cell-based, murine; conditions: LPS 100 ng/mL 16 h
Procedure: NT, non-treated; LPS, lipopolysaccharides. (A) Cytotoxicity was assessed using the MTT assay. […] (B) Anti-inflammatory potential deduced by NO assay.
(§2) The macrophage cells were seeded (3 × 10^4 cells/well) and incubated in 96-well plates for 24 h, followed by pretreatments with the WALK peptides at designated concentrations for 5 min and subsequent stimulation with 100 ng/mL of LPS for 16 h. The nitrite concentration in the culture medium was determined using the Griess reaction assay. Briefly, the culture supernatant (100 μL) was mixed with an equal volume of Griess reagent (1% sulfanilamide, 0.1% N-1-naphthyl ethylenediamine) and incubated for 5 min. The absorbance of the resulting chromophoric azo-derivative molecules was measured at 550 nm using a microplate reader with a fresh culture medium as a blank. The amount of nitrite in each sample was determined using a standard curve generated using a range of dilutions of sodium nitrite solutions.

[7] = system: LPS-stimulated RAW264.7 cells; assay: as above; format: cell-based, murine; conditions: LPS 100 ng/mL 16 h, compared with omiganan and WALK155.03 (8 μM)
Procedure: as §2

[8] = system: iNOS, COX-2 and pro-IL-1β in LPS-stimulated RAW264.7 cells; assay: Immunoblot analysis of pro-inflammatory mediators; format: cell-based, murine; conditions: peptide pretreatment 5 min, LPS 100 ng/mL 16 h, Western blot
Procedure: (§3) Figure 5 Anti-inflammatory effects of WALK244.04 peptide in Raw264.7 cells. The cells were pretreated with the peptide at indicated concentrations for 5 min, followed by stimulation with LPS (100 ng/mL) to induce inflammatory responses. (A) iNOS, COX-2, and pro-IL-1β expression levels were estimated by Western blot analysis after 16 h of LPS treatment. (B) The mRNA expression of IL-1β, IL-6, and TNF-α was determined by quantitative real-time PCR upon 3 h of stimulation with LPS. […] (C) The phosphorylation of STAT1 and TBK1 was examined by Western blot analysis at different time points after the LPS treatment.
as §3, with “Figure 6” for “Figure 5”, “of WALK243.04” for “of WALK244.04”, “PCR after” for “PCR upon”, “was analyzed” for “was examined”, “after” for “after the”
The cells were lysed using a RIPA buffer (iNtRON) containing protease and phosphatase inhibitor cocktails. The cell lysates were resolved using 10% SDS-PAGE and transferred to nitrocellulose membranes, which were blocked for 1 h at room temperature (approximately 23 °C) using phosphate-buffered saline with 0.01% Tween-20 (PBST, Merck Korea, Seoul, Korea) containing 10% fat-free dried milk. The blocked membranes were then incubated overnight with primary antibodies at 4 °C, followed by further incubation with horseradish peroxidase-conjugated secondary antibodies for 1 h at room temperature. The membranes were developed using the enhanced chemiluminescence (ECL) detection kit (Advansta, San Jose, CA, USA) and visualized using a luminescent image analyzer (Amersham imager 680, Cytiva Korea, Incheon, Korea).

[9] = system: IL-1β, IL-6 and TNF-α mRNA in LPS-stimulated RAW264.7 cells; assay: Quantitative real-time PCR of pro-inflammatory cytokines; format: cell-based, murine; conditions: LPS 100 ng/mL 3 h, real-time qPCR
Procedure: as §3
Figure 6 Anti-inflammatory effects of WALK243.04 peptide in Raw264.7 cells. […] (B) The mRNA expression of IL-1β, IL-6, and TNF-α was determined by quantitative real-time PCR after 3 h of stimulation with LPS. […] (C) The phosphorylation of STAT1 and TBK1 was analyzed by Western blot analysis at different time points after LPS treatment.
The cells were stimulated with LPS (100 ng/mL) for 3 h in the presence or absence of peptide samples, and the total RNA was extracted using a HiGene™ Total RNA Prep Kit (BIOFACT, Daejeon, Korea). cDNA was synthesized from 500 ng of total RNA using a SuperiorScript III cDNA synthesis kit (Enzynomics, Daejeon, Korea). […] The resulting 2^−ΔΔCt value for each group was used to calculate the relative expression ratio of the detected mRNA.

[10] = system: phosphorylation of STAT1 and TBK1 in LPS-stimulated RAW264.7 cells; assay: Immunoblot analysis of TRIF-dependent signaling; format: cell-based, murine; conditions: Western blot
Procedure: as §3
TRIF-dependent signaling, which is triggered by association with internalized TLR4 upon stimulation by LPS, is known to be mediated by the phosphorylation of the downstream kinase TANK binding kinase-1 (TBK-1) to produce type-I interferons. These interferons induce the expression of downstream target genes via the phosphorylation of the transcription factor signal transducer and the activator of transcription-1 (STAT-1).
The cells were lysed using a RIPA buffer (iNtRON) containing protease and phosphatase inhibitor cocktails. […]

human red blood cells = conditions: for MHC, minimal hemolytic concentration: lowest concentration showing 5% or more hemolysis, human red blood cells 10% v/v in PBS, 1 h, 1–64 μg/mL, A550, relative to 0.2% Triton X-100, triplicate
Procedure: Briefly, suspensions of human red blood cells (10% v/v in PBS) were treated for 1 h with various concentrations (1–64 μg/mL, two-fold serial dilutions) of peptides, followed by measurement of the absorbance of the supernatant at 550 nm. The relative attenuation was determined as the percentage of hemolysis compared to that of the blood suspension treated with 0.2% Triton X-100. The tests were performed in triplicate, and the average values of three independent measurements were recorded.

J774A.1 cells = conditions: peptides 8, 4 and 2 μM, 16 h
Procedure: (A) Cytotoxicity was assessed using the MTT assay. The cells were treated with lipopolysaccharides (LPS, 100 ng/mL) or peptides (8–2 μM, two-fold serial dilutions) for 16 h, followed by estimating the cell viability as the percentage of surviving cells compared to that of the control cells.
(§4) Macrophage cells seeded in 96-well cell culture plates at a density of 3 × 10^4 cells/well were incubated for 24 h, followed by treatment with LPS or individual WALK peptides and subsequent incubation for 16 h. Cell viability was then assessed by the conventional MTT assay. Briefly, the medium in each well was replaced with 100 μL of RPMI medium containing MTT (500 μg/mL). After 2 h of incubation, the medium was discarded and the insoluble formazan in each well was dissolved in 100 μL of DMSO with shaking. The absorbance of the solution at 550 nm was measured using a spectrophotometric microplate reader to determine the percentage of cell viability relative to that of control cells.

RAW264.7 cells = conditions: at the concentrations tested, 16 h
Procedure: as §4

Substance	MIC, B. subtilis [1] [µg/mL]	MIC, E. coli [2] [µg/mL]	MIC, S. dysentariae [3] [µg/mL]	MIC, S. aureus [4] [µg/mL]	MIC values against the strains tested ([5]; against both Gram-positive and Gram-negative bacterial strains, summary)	GM, geometric mean of MICs [5] [µg/mL]	NO inhibition at 8 μM ([6]; peptide 8 μM)	inhibitory effect against NO production ([6]; peptides 8, 4 and 2 μM, pretreatment 5 min, nitrite by Griess)	NO inhibitory activity [7]	COX-2 and pro-IL-1β expression [8]	iNOS expression [8]	mRNA expression of IL-1β, IL-6 and TNF-α [9]	TBK-1 phosphorylation ([10]; after 1 h of LPS treatment)	STAT-1 phosphorylation ([10]; after 4 h of LPS treatment)	hemolytic activity (human red blood cells; at concentrations under 64 μg/mL, human erythrocytes)	MHC, minimal hemolytic concentration (human red blood cells) [µg/mL]	cytotoxicity (MTT assay) (J774A.1 cells)	cytotoxicity (MTT assay) (RAW264.7 cells)
LLKWLKKWLK-NH2 [WALK244.04]	4	4	8	4	approximately 4 μg/mL	4.8	near-complete NO inhibition	dose-dependent inhibitory effect	most potent NO inhibitory activity	downregulation	substantial downregulation	effectively suppressed	attenuated	strong inhibition	no significant hemolytic activity	64	no significant cytotoxicity	–
LLKWLKKWL-NH2 [WALK243.04]	4	4	4	4	–	4.0	–	–	superior NO inhibition compared to other positive controls	less potent or weaker than those of WALK244.04	less potent or weaker than those of WALK244.04	–	–	–	–	64	–	did not demonstrate significant cytotoxicity
